Tested on: zebrafish 4 days post fertilization
Experiment: Zebrafish colour preference (visual perception response) test in water tank with blue and yellow passage portions
Conditions: as the alcohol concentration of the medium increased (0%, 0.5%, 1%, 2%); 10 zebrafish, 30-minute intervals, FIG. 5
Description: 5) The image stored in each of the first to fifth image files was read at 2-minute intervals to count the number of zebrafish in the first passage portion 112 fitted with the first fitting body 120 (preferred color) or the second passage portion 113 fitted with the second fitting body 130 (dislike color).

## CCO [alcohol]
  visual perception response of the zebrafish (distribution between first passage portion, preferred color, and second passage portion, dislike color): scattered in both the first passage portion 112 and the second passage portion 113

Reference: US20150177228A1, “DEVICE AND METHOD FOR SCREENING FOR BIOACTIVE MATERIALS USING VISUAL RECOGNITION OF ANIMALS” (GENOMIC DESIGN BIOENGINEERING COMPANY, priority 2012, published 2015)
